Test results: patent US7332523B2, “TNP-470 polymer conjugates and use thereof” (Children's Medical Center Corporation, priority 2002, dated 2008)

Assays:
LLC = test: Antitumor activity in C57BL/6J mice bearing s.c. LLC; settings: 30 mg/kg q.o.d. (data not shown)
[1] = Early mouse development (body weight of newborn mice); settings: injected into 7 and 17 day-old BALB/c mice
liver regeneration = test: Hepatectomy model (liver regeneration); type: in vivo, C57BL/6J mice
Method: Male C57BL/6J mice underwent a partial hepatectomy through a midline incision after general anesthesia with isoflourane^33. Free or conjugated TNP-470 (30 mg/kg) were given s.c. every other day for 8 days beginning on the day of surgery according to the scheme described in FIG. 4a. Alternatively, the doses given were 60 mg/kg the day of surgery and 4 days later or 120 mg/kg once on the day of the partial hepatectomy. The liver was harvested on the 8th day, weighed and analyzed by histology.

[2] = at doses where antitumor activity has been seen; cited from earlier work
chick aortic ring = test: Chick aortic ring endothelial sprouting assay; type: cell-based
Method: Aortic arches were dissected from day-14 chick embryos, cut into cross-sectional fragments, and implanted in vitro in Matrigel using a modification of methods previously described (V. Muthukkaruppan, personal communication). When cultured in MCDB-131 medium supplemented with 5% fetal bovine serum, endothelial cells sprouted and vascular channel formation occurred within 24-48 hours.

[3] = test system: murine, human and metastatic tumors; settings: mice; mostly 30 mg/kg subcutaneously every other day; cited from earlier work
A2058 human melanoma = test: Antitumor activity in SCID mice bearing s.c. A2058 human melanoma; type: in vivo
Source text: Each group consisted of 5 mice.

[4] = cited from earlier work
[5] = clinical pharmacokinetics, comparison value in words; cited from earlier work

SMILES	weight loss (LLC)	effect on growth / weight gain in normal development [1]	inhibition of liver regeneration (liver regeneration; 60 mg/kg every four days (q.4.d.))	inhibition of liver regeneration (liver regeneration; single injection of 120 mg/kg on the day of hepatectomy)	adverse effects in patients [2]	effect on vascular sprouts (chick aortic ring; 50 pg/ml)	effect on vascular sprouts (chick aortic ring; 100 pg/ml)	inhibition of growth of human tumors [3]	inhibition of growth of metastatic tumors [3]	inhibition of growth of murine tumors [3]	T/C (mean tumor volume treated / untreated control) (A2058 human melanoma; 30 mg/kg TNP-equiv.)	survival (A2058 human melanoma; free or conjugated TNP-470, 30 mg/kg TNP-equiv.)	body weight in animals ([4]; animals receiving TNP-470)	toxicity to mice at the higher doses ([4]; doses of 60 and 90 mg/kg/q.o.d., mice)	splenic weight ([4]; two reports)	t1/2α [5]
CO[C@@H]1[C@H](OC(=O)NC(=O)CCl)CC[C@]2(CO2)[C@H]1[C@@]1(C)O[C@@H]1CC=C(C)C [TNP-470, O-(chloracetyl-carbamoyl) fumagillol]	did	inhibited growth, by inhibiting weight gain	did not inhibit liver regeneration	did not inhibit liver regeneration	neurotoxicity (malaise, rare seizures, asthenia, anxiety and dysphoria)	reduced the number and length of vascular sprouts	completely prevented outgrowth	up to 100%	up to 100%	up to 91%	0.34	increased survival	weight loss or failure to gain weight	known to be toxic	decrease in splenic weight	
COc1cccc2c1C(=O)c1c(O)c3c(c(O)c1C2=O)C[C@@](O)(C(=O)CO)C[C@@H]3O[C@H]1C[C@H](N)[C@H](O)[C@H](C)O1 [doxorubicin]																few minutes
